These results are taken from the supplement of paper PMC11208160.
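Further: IS621 recombinase and bridge RNA in Escherichia coli cells.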

The nature of this data set: recombinant barcode read abundance after kanamycin selection (control-corrected) (log10(CPM+1)); higher = more efficient recombination; sequences stand for … in AGTGCAGAGAAAATCGGCCAGTTTTCTCTGCCTGCAGTCCGCATGCCGT…AGATTTATGCAGCGGACTGCCTTTCTCCCAAAGTGATAAACCGGACAGTATCATGGACCGGTTTTCCCGGTAATCCGTATTTGCAAGGTTGGTTTCACT; site = the 11-nt target. The essentials: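 Duplicate cultures were plated either on chloramphenicol/ampicillin LB agar, serving as control, or on chloramphenicol/ampicillin/kanamycin with 0.1 mM IPTG. These came from a pooled E. coli library co-electroporated with a donor plasmid, each member pairing a target with an IS621 bridge RNA target-binding loop. Recombination efficiency equals averaged, control-corrected counts per million of recombinant-junction barcodes. It is listed as log10(CPM+1).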
“CCGGACCCTTGGGTTCTAACCTGTTGCTG (site CCGTGCCCTCA)”: the “recombinant barcode read abundance (log10)” value amounted to 0.336.

“CCGGATGCTTGGGTTCTAACCTGTTGCCT (site CCGAATGCTAG)”: the “recombinant barcode read abundance (log10)” value was 0.272.

“CCGGATGCTTGGGTTCTAACCTGTTGCCT (site CCGCATGCTAG)”: the “recombinant barcode read abundance (log10)” value is 0.117.

Take “CCGGATGCTTGGGTTCTAACCTGTTGCCT (site CCGGATGCTAG)”: the “recombinant barcode read abundance (log10)” value was 0.775.

As for “CCGGATGCTTGGGTTCTAACCTGTTGCCT (site CCGTATGCTAG)”, the “recombinant barcode read abundance (log10)” value came to 0.0746.

Take “CCGGATTCTTGGGTTCTAACCTGTTGCCT (site CCGGATTCTAG)”: the “recombinant barcode read abundance (log10)” value amounted to 1.69.

In the case of “CCGGATTCTTGGGTTCTAACCTGTTGCCT (site CCGGTTGCTAG)”, the “recombinant barcode read abundance (log10)” value turned out to be 0.369.

Regarding “CCGGTAACTTGGGTTCTAACCTGTTGCCT (site CCGGTAACTAG)”, the “recombinant barcode read abundance (log10)” value stood at 0.45.

With “CCGGTAACTTGGGTTCTAACCTGTTGCCT (site CCTGTAGCTAG)”, the “recombinant barcode read abundance (log10)” value turned out to be 0.142.

As to “CCGGTAGCTTGGGTTCTAACCTGTTGCCA (site CCGGTAGCTTG)”, the “recombinant barcode read abundance (log10)” value was 0.443.

As for “CCGGTAGCTTGGGTTCTAACCTGTTGCCA (site GCAGTAGCTTG)”, the “recombinant barcode read abundance (log10)” value was found to be 0.556.

Consider “CCGGTATCTTGGGTTCTAACCTGTTGCCT (site CCGATATCTAG)”, for which the “recombinant barcode read abundance (log10)” value came to 0.0308.

For the sequence “CCGGTATCTTGGGTTCTAACCTGTTGCCT (site CCGCTATCTAG)”, the “recombinant barcode read abundance (log10)” value is 0.688.

Turning to “CCGGTATCTTGGGTTCTAACCTGTTGCCT (site CCGGTATCTAG)”, the “recombinant barcode read abundance (log10)” value came out at 0.197.

For the sequence “CCGGTATCTTGGGTTCTAACCTGTTGCCT (site CCGTTATCTAG)”, the “recombinant barcode read abundance (log10)” value came to 0.0727.

As for “CCGGTGCCTTGGGTTCTAACCTGTTGCCT (site CAGGTGCCTAG)”, the “recombinant barcode read abundance (log10)” value worked out at 0.0703.

In the case of “CCGGTGCCTTGGGTTCTAACCTGTTGCCT (site CCGGTGCCTAG)”, the “recombinant barcode read abundance (log10)” value was found to be 2.29.

In the case of “CCGGTGCCTTGGGTTCTAACCTGTTGCCT (site CGGGTGCCTAG)”, the “recombinant barcode read abundance (log10)” value is 1.03.

As for “CCGGTGCCTTGGGTTCTAACCTGTTGCCT (site CTGGTGCCTAG)”, the “recombinant barcode read abundance (log10)” value was found to be 0.21.

In the case of “CCGTAAGCTTGGGTTCTAACCTGTTGCCT (site CCGTAAACTAG)”, the “recombinant barcode read abundance (log10)” value was 0.139.

On to “CCGTAAGCTTGGGTTCTAACCTGTTGCCT (site CCGTAACCTAG)”, for which the “recombinant barcode read abundance (log10)” value worked out at 0.0711.

Take “CCGTAAGCTTGGGTTCTAACCTGTTGCCT (site CCGTAAGCTAG)”: the “recombinant barcode read abundance (log10)” value worked out at 0.105.

For “CCGTAAGCTTGGGTTCTAACCTGTTGCCT (site CCGTAATCTAG)”, the “recombinant barcode read abundance (log10)” value turned out to be 0.0655.

As to “CCGTACTCTTGGGTTCTAACCTGTTGCCT (site CCGTACTCTAG)”, the “recombinant barcode read abundance (log10)” value was 1.22.

Turning to “CCGTACTCTTGGGTTCTAACCTGTTGCCT (site CCGTAGTCTAG)”, the “recombinant barcode read abundance (log10)” value was 0.0897.

Consider “CCGTCTACTTGGGTTCTAACCTGTTGCCT (site CAGTCTACTAG)”, for which the “recombinant barcode read abundance (log10)” value was 0.0408.

Take “CCGTCTACTTGGGTTCTAACCTGTTGCCT (site CCGTCTACTAG)”: the “recombinant barcode read abundance (log10)” value is 0.0187.

Take “CCGTCTACTTGGGTTCTAACCTGTTGCCT (site CGGTCTACTAG)”: the “recombinant barcode read abundance (log10)” value came out at 0.0454.

Regarding “CCGTCTACTTGGGTTCTAACCTGTTGCCT (site CTGTCTACTAG)”, the “recombinant barcode read abundance (log10)” value worked out at 0.082.

Regarding “CCGTCTACTTGGGTTCTAACCTGTTGCTA (site CCGTCTACTAA)”, the “recombinant barcode read abundance (log10)” value was determined as 0.02.

Consider “CCGTCTACTTGGGTTCTAACCTGTTGCTA (site CCGTCTACTCA)”, for which the “recombinant barcode read abundance (log10)” value was 0.161.

Consider “CCGTCTACTTGGGTTCTAACCTGTTGCTA (site CCGTCTACTGA)”, for which the “recombinant barcode read abundance (log10)” value is 0.125.

“CCGTCTACTTGGGTTCTAACCTGTTGCTA (site CCGTCTACTTA)”: the “recombinant barcode read abundance (log10)” value was 0.259.

Consider “CCGTGCCCTTGGGTTCTAACCTGTTGCGT (site CCGTGCCCTAC)”, for which the “recombinant barcode read abundance (log10)” value was determined as 1.92.

In the case of “CCGTGCCCTTGGGTTCTAACCTGTTGCGT (site TCGTGCCCTAC)”, the “recombinant barcode read abundance (log10)” value is 0.0224.

On to “CCGTGCCCTTGGGTTCTAACCTGTTGCTG (site CCGGACCCTCA)”, for which the “recombinant barcode read abundance (log10)” value came to 0.111.

As to “CCGTGCCCTTGGGTTCTAACCTGTTGCTG (site CCGTGCCCTCA)”, the “recombinant barcode read abundance (log10)” value is 1.62.

With “CCTAAAACTTGGGTTCTAACCTGTTGCCT (site CCTAAAACTAG)”, the “recombinant barcode read abundance (log10)” value came out at 0.0998.

As for “CCTAAAACTTGGGTTCTAACCTGTTGCCT (site GAACTCTCTTA)”, the “recombinant barcode read abundance (log10)” value turned out to be 0.0257.

For “CCTAACCCTTGGGTTCTAACCTGTTGCGT (site CCTAAACCTAC)”, the “recombinant barcode read abundance (log10)” value was determined as 0.39.

With “CCTAACCCTTGGGTTCTAACCTGTTGCGT (site CCTAACCCTAC)”, the “recombinant barcode read abundance (log10)” value is 1.85.

As to “CCTAACCCTTGGGTTCTAACCTGTTGCGT (site CCTAAGCCTAC)”, the “recombinant barcode read abundance (log10)” value stood at 0.0306.

Consider “CCTAACCCTTGGGTTCTAACCTGTTGCGT (site CCTAATCCTAC)”, for which the “recombinant barcode read abundance (log10)” value is 0.381.

As for “CCTAAGACTTGGGTTCTAACCTGTTGCCA (site CCTAAGACTAG)”, the “recombinant barcode read abundance (log10)” value came out at 0.08.

As for “CCTAAGACTTGGGTTCTAACCTGTTGCCA (site CCTAAGACTCG)”, the “recombinant barcode read abundance (log10)” value worked out at 0.133.

“CCTAAGACTTGGGTTCTAACCTGTTGCCA (site CCTAAGACTGG)”: the “recombinant barcode read abundance (log10)” value stood at 0.0159.

On to “CCTAAGACTTGGGTTCTAACCTGTTGCCA (site CCTAAGACTTG)”, for which the “recombinant barcode read abundance (log10)” value worked out at 0.

With “CCTAAGACTTGGGTTCTAACCTGTTGCCT (site CCTAAGACTAG)”, the “recombinant barcode read abundance (log10)” value was found to be 0.595.

As to “CCTAAGACTTGGGTTCTAACCTGTTGCCT (site CCTAAGACTCG)”, the “recombinant barcode read abundance (log10)” value was found to be 0.0786.

Turning to “CCTAAGACTTGGGTTCTAACCTGTTGCCT (site CCTAAGACTGG)”, the “recombinant barcode read abundance (log10)” value amounted to 0.0702.

In the case of “CCTAAGACTTGGGTTCTAACCTGTTGCCT (site CCTAAGACTTG)”, the “recombinant barcode read abundance (log10)” value amounted to 0.0542.

For the sequence “CCTAAGCCTTGGGTTCTAACCTGTTGCAT (site CCTAAGCCTAT)”, the “recombinant barcode read abundance (log10)” value is 0.859.

For the sequence “CCTAAGCCTTGGGTTCTAACCTGTTGCAT (site GGACGCACTCC)”, the “recombinant barcode read abundance (log10)” value was determined as 0.111.

Turning to “CCTAATACTTGGGTTCTAACCTGTTGCTT (site ACTAATCCTAA)”, the “recombinant barcode read abundance (log10)” value is 0.107.

For the sequence “CCTAATACTTGGGTTCTAACCTGTTGCTT (site CCTAATACTAA)”, the “recombinant barcode read abundance (log10)” value turned out to be 0.155.

For “CCTACATCTTGGGTTCTAACCTGTTGCAT (site CCTACATCTAT)”, the “recombinant barcode read abundance (log10)” value is 0.252.

As to “CCTACATCTTGGGTTCTAACCTGTTGCAT (site CCTACATCTTA)”, the “recombinant barcode read abundance (log10)” value came out at 0.0552.

As to “CCTACATCTTGGGTTCTAACCTGTTGCCT (site CCTACAACTAG)”, the “recombinant barcode read abundance (log10)” value turned out to be 0.124.

For “CCTACATCTTGGGTTCTAACCTGTTGCCT (site CCTACACCTAG)”, the “recombinant barcode read abundance (log10)” value was 0.115.
